Laboratory results: patent publication US7754272B2, “Local drug delivery” (Biocompatibles IK Limited, priority 1999, dated 2010)
≈ marks a conversion by molar mass, not a printed value. Each block holds one molecule with its values, some of them ahead of it.

Experiments:
[1] = cited from earlier work
[2] = Ex vivo human saphenous vein model, angiopeptin loaded stents
Description: More extensive work was conducted on angiopeptin loaded stents, to mimic the in vivo environment. The further examples use an ex vivo human saphenous vein model (as described by Armstrong, J. et al 1998. A purfused organ culture model to investigate drug release from coronary stents, Northern General Hospital, Sheffield (in press). The stents (produced as in Reference Example 1 below) were loaded using aqueous solutions of angiopeptin labeled with ^125I by the chloramine T method, into which the stent was dipped for half an hour at 37 C. The loaded stents were then allowed to air dry for one hour. Stents were in inserted into the vein, expanded by balloon catheter, washed in 10 ml culture medium for 10 s then placed in the purpose-built organ culture chamber bathed in 30 ml culture medium. The chamber was then connected to a circuit and 100 ml culture medium (HEPES-buffered RPMI 1640 culture medium (LIFE) supplemented with penicillin ([…]) streptomycin (100 units/ml) and glutamine (2 mM)) at 70 ml/min, then removed after 1 hour or 24 hours. The stent was subsequently examined to determine the proportion of angiopeptin which has eluted, whilst the vessel immediately surrounding the stent was investigated to determine the proportion of eluted drug found in the vessel. The culture medium was also analysed as was the explanted stent for radio activity.

[3] = In vivo porcine coronary artery model, angiopeptin loaded stents
Description: Further work was conducted to investigate the ability of the angiopeptin loaded stents to deliver angiopeptin tissue in an in vivo, in a porcine coronary artery model. […] The levels of angiopeptin remaining in the arterial wall immediately surrounding the stent was determined as well as the level recovered in blood and urine.

[4] = Aspirin loading and release, pre-coated stents; type: physicochemical; details: for aspirin loaded: 15 mm stent, one hour, room temperature
Description: Aspirin has anti platelet activity, which may be useful delivered locally from a stent. […] The solutions were used to load 15 mm stents having coatings produced according to Reference Example 1 (interior wall coating thickness around 350 nanometers, exterior wall coating thickness around 1400 nanometers). The stents were immersed in the aspirin solutions at room temperature for a period of one hour. The stent was removed from the solution, excess solution removed by gentle dabbing with absorbent tissue. Aspirin loading levels were determined by extracting the aspirin into 3 ml ethanol.

[5] = Dexamethasone phosphate and dexamethasone loading and elution, pre-coated stents; details: for loading per stent: 20 C., 30 minutes
[6] = Etoposide/polymer premix coated stents, loading and release; type: physicochemical
Description: In this example, rather than precoating the polymer according to reference Example 1, followed by loading of drug, a premix of drug and crosslinkable polymer is formed and coated onto a stent. The crosslinkable polymer is identical to that used in Reference Example 1, 0.932 g polymer being dissolved into a 1:1 ethanol:water (by volume) mixture (50 ml). […] The coated stents were cured overnight at a temperature in the range 50 to 70 C.
The amount of drug loaded into the stents was determined by elution into an ethanol:water 50:50 (volume) mixture. […] The amount of etoposide eluted into ethanol:water is in this range.
The release rate, from the results, for the stent coated with a polymer crosslinked in the presence of drug indicate that the release of drug may not be slowed down as compared to the alternative system, where precoated stents are contacted with a solution of drug.

[7] = Roxithromycin loading and release, pre-coated stents; type: physicochemical
Description: Stents coated with polymer according to Reference Example 1 (15 mm) were loaded with roxithromycin from 5 g/l and 10 g/l solutions in ethanol or in ethanol:water 50:50 mixture. The level of loading of drug onto the stent was determined by elution from the stent into ethanol. […] The average loading for the 5 g/l solution was 58 μg per stent, whilst the 10 g/l solutions lead to loadings of around 70 μg for both solvent systems.
Stents loaded from the 10 g/l ethanolic solutions were subsequently contacted with phosphate buffered saline under gentle agitation and the release rate determined. […] The test was continued up to 48 hours, after which time 5 to 10% of roxithromycin remains in the coating.

[8] = Taxol loading of cross-linked polymer discs; type: physicochemical
Description: Polymers of the same compositions as used in example 8 are tested for taxol (paclitaxel) loading. Twenty discs were cut out of each membrane of polymer, placed on pieces of PTFE in petri dishes and dried in an oven at 60° C. for an hour. When cool the discs were placed into a solution of taxol and allowed to swell in a water bath at 37° C. for half an hour. The taxol solution was decanted off, the discs labelled and placed on the PTFE and allowed to air dry. The discs were then tested for determining total loadings.

[9] = Drug loading of HEMA-PC:HEMA:MMA:MBA crosslinked membrane; type: physicochemical; details: HEMA-PC:HEMA:MMA:MBA copolymer swollen in aqueous drug solution, room temperature, over night
Description: The polymers including MBA were polymerised in situ to form crosslinked membranes. […] The crosslinked polymers were used to form “infinite slabs” type membranes, to simulate the coating on a stent. […] The loaded levels were established to be the following: […]

[10] = Vitamin B12 loading of MBA-crosslinked HEMA-PC:LM polymers; type: physicochemical
Description: Polymers based on HEMA-PC:LM 1:2 with varying degrees of MBA crosslinker were tested to determine the effect of crosslinker on release of vitamin B12. The polymers were also tested for their water content when swollen to equilibrium in water at 37° C. The loading levels of vitamin B12 are recorded in table 2 below.
Also recorded in table 2 are similar results for MBA crosslinked copolymers based upon 1:1 copolymers of HEMA-PC and LM.

Molecule: CO[C@H]1C[C@@H]2CC[C@@H](C)[C@@](O)(O2)C(=O)C(=O)N2CCCC[C@H]2C(=O)O[C@H]([C@H](C)C[C@@H]2CC[C@@H](O)[C@H](OC)C2)CC(=O)[C@H](C)/C=C(\C)[C@@H](O)[C@@H](OC)C(=O)[C@H](C)C[C@H](C)/C=C/C=C/C=C/1C [Rapamycin]
solubility in water [1]: 5 µg/mL (≈ 5.47 µM)

Molecule: CC(C)[C@@H]1NC(=O)[C@H](CCCCN)NC(=O)[C@@H](Cc2c[nH]c3ccccc23)NC(=O)[C@H](Cc2ccc(O)cc2)NC(=O)[C@@H](NC(=O)[C@H](N)Cc2ccc3ccccc3c2)CSSC[C@@H](C(=O)N[C@H](C(N)=O)[C@@H](C)O)NC1=O [angiopeptin]
share of angiopeptin eluted from stent ([2]; after 1 hour): 93% | share of eluted drug in the surrounding vessel ([2]; after 1 hour): 13.9% | share of angiopeptin eluted from stent ([2]; after 24 hours): 97% | share of eluted drug remaining in the vessel ([2]; after 24 hours): 7.4% | share of detected angiopeptin located in tissue other than the heart ([3]; 1 to 28 days): less than 1% | angiopeptin in blood ([3]; after 5 min): 0.08 µg/mL | angiopeptin in urine ([3]; after 1 hour): 0.29 µg/mL | share of angiopeptin remaining on the stent ([3]; after 1 hour): 9% | angiopeptin in blood ([3]; after 24 hours): around 0.01 μg/ml | share of angiopeptin remaining on the stent ([3]; after 24 hours): 4% | share of angiopeptin remaining on the stent ([3]; after 7 days): 1.5% | angiopeptin in urine ([3]; after 28 days): 0.01 µg/mL | angiopeptin in blood compared with 5 min ([3]; after one hour): about the same | level of angiopeptin in tissue ([3]; arterial wall surrounding the stent, after 24 hours): around 400 pg/ml | angiopeptin in blood ([3]; at 7 to 28 days): No angiopeptin could be found | share of released angiopeptin localised in the left anterior descending coronary artery ([3]; at 1 hour): 84% | level of angiopeptin in tissue ([3]; at 7 days): around 360 pg/ml | level of angiopeptin in tissue ([3]; at 28 days): around 200 pg/ml

Molecule: CC(=O)Oc1ccccc1C(=O)O [aspirin, Aspirin]
aspirin loaded ([4]; 10 g/l in ethanol): around 10 μg | aspirin loaded ([4]; 40 g/l in ethanol): around 40 μg | share of drug eluted ([4]; into phosphate buffered saline, after about 1 hour): around 90% | solubility in water [1]: only partially soluble in water

Molecule: C[C@@H]1C[C@H]2[C@@H]3CCC4=CC(=O)C=C[C@]4(C)[C@@]3(F)[C@@H](O)C[C@]2(C)[C@@]1(O)C(=O)CO [dexamethasone, Dexamethasone]
solubility in water [1]: less water soluble than dexamethasone phosphate

Further lines, with some results ahead:

loading per stent ([5]; 1.0 g/l in water): 9 μg per stent | loading per stent ([5]; 2.0 g/l in water): 14 µg | loading per stent ([5]; 5.0 g/l in water): 20 µg | time by which effectively all the drug is released ([5]; elution test): ≤ 1 h
Molecule: C[C@@H]1C[C@H]2[C@@H]3CCC4=CC(=O)C=C[C@]4(C)[C@@]3(F)[C@@H](O)C[C@]2(C)[C@@]1(O)C(=O)COP(=O)(O)O [dexamethasone phosphate, Dexamethasone phosphate]

time at which release plateaued ([6]; into 5 ml phosphate buffered saline): around 5 minutes | average etoposide loading ([6]; premix coated stent, eluted into ethanol:water 50:50): around 12 μg per stent
Molecule: COc1cc([C@@H]2c3cc4c(cc3[C@@H](O[C@@H]3O[C@@H]5CO[C@@H](C)O[C@H]5[C@H](O)[C@H]3O)[C@H]3COC(=O)[C@H]23)OCO4)cc(OC)c1O [etoposide]
solubility in water [1]: only slightly soluble in water

average loading ([7]; 15 mm stent, 5 g/l solution): 58 μg per stent | loading ([7]; 15 mm stent, 10 g/l solutions, ethanol and ethanol:water 50:50): around 70 μg | share of compound released ([7]; PBS, gentle agitation, after 24 hours, loaded from 10 g/l ethanolic solution): around half
Molecule: CC[C@H]1OC(=O)[C@H](C)[C@@H](O[C@H]2C[C@@](C)(OC)[C@@H](O)[C@H](C)O2)[C@H](C)[C@@H](O[C@@H]2O[C@H](C)C[C@H](N(C)C)[C@H]2O)[C@](C)(O)C[C@@H](C)/C(=N\OCOCCOC)[C@H](C)[C@@H](O)[C@]1(C)O [roxithromycin, Roxithromycin]
solubility in water [1]: substantially insoluble in water

Total Loading (μg per disc) ([8]; Series 1, 1st polymer (Table 4 HEMA-PC:LM:Hpm:TMSPM 13:39:15:5)): 35.2 μg per disc | Total Loading (μg per disc) ([8]; Series 1, 2nd polymer (Table 4 53:39:15:5)): 80 μg per disc | Total Loading (μg per disc) ([8]; Series 1, 3rd polymer (Table 4 13:55:15:5)): 15 μg per disc | Total Loading (μg per disc) ([8]; Series 1, 4th polymer (Table 4 33:55:15:5)): 18.1 μg per disc | Total Loading (μg per disc) ([8]; Series 2, 1st polymer (Table 4 13:39:15:9)): 51.7 μg per disc | Total Loading (μg per disc) ([8]; Series 2, 2nd polymer (Table 4 33:39:15:9)): 57 μg per disc | Total Loading (μg per disc) ([8]; Series 2, 3rd polymer (Table 4 13:55:15:9)): 18.6 μg per disc | Total Loading (μg per disc) ([8]; Series 2, 4th polymer (Table 4 33:55:15:9)): 10 μg per disc | Total Loading (μg per disc) ([8]; Series 3, 1st polymer (Table 4 13:39:35:5)): 55.2 μg per disc | Total Loading (μg per disc) ([8]; Series 3, 2nd polymer (Table 4 33:39:35:5)): 11.2 μg per disc | Total Loading (μg per disc) ([8]; Series 3, 3rd polymer (Table 4 13:55:35:5)): 5.4 μg per disc | Total Loading (μg per disc) ([8]; Series 3, 4th polymer (Table 4 33:55:35:5)): 25.3 μg per disc | Total Loading (μg per disc) ([8]; Series 4, 1st polymer (Table 4 13:39:35:9)): 23.8 μg per disc | Total Loading (μg per disc) ([8]; Series 4, 2nd polymer (Table 4 33:39:35:9)): 60.5 μg per disc | Total Loading (μg per disc) ([8]; Series 4, 3rd polymer (Table 4 13:55:35:9)): 24.3 μg per disc | Total Loading (μg per disc) ([8]; Series 4, 4th polymer (Table 4 33:55:35:9)): 64 μg per disc
Molecule: CC(=O)O[C@H]1C(=O)[C@@]2(C)[C@H]([C@H](OC(=O)c3ccccc3)[C@]3(O)C[C@H](OC(=O)[C@H](O)[C@@H](NC(=O)c4ccccc4)c4ccccc4)C(C)=C1C3(C)C)[C@]1(OC(C)=O)CO[C@@H]1C[C@@H]2O [taxol, paclitaxel]

Loading (mg/g polymer) [9]: 85 mg/g polymer
Molecule: rhodamine

Loading (mg/g polymer) [9]: 40 mg/g polymer | Vitamin B12 Load (mg/g polymer) ([10]; HEMA-PC:LM 1:1, crosslinker 0.28 mole %): 26.13 mg/g polymer | Vitamin B12 Load (mg/g polymer) ([10]; HEMA-PC:LM 1:1, crosslinker 0.5 mole %): 19.83 mg/g polymer | Vitamin B12 Load (mg/g polymer) ([10]; HEMA-PC:LM 1:1, crosslinker 1 mole %): 11.89 mg/g polymer | Vitamin B12 Load (mg/g polymer) ([10]; HEMA-PC:LM 1:1, crosslinker 2 mole %): 8.44 mg/g polymer | Vitamin B12 Load (mg/g polymer) ([10]; HEMA-PC:LM 1:1, crosslinker 5 mole %): 4.94 mg/g polymer | Vitamin B12 Load (mg/g polymer) ([10]; HEMA-PC:LM 1:2, crosslinker 0.28 mole %): 11.73 mg/g polymer | Vitamin B12 Load (mg/g polymer) ([10]; HEMA-PC:LM 1:2, crosslinker 0.5 mole %): 10.68 mg/g polymer | Vitamin B12 Load (mg/g polymer) ([10]; HEMA-PC:LM 1:2, crosslinker 1 mole %): 11.4 mg/g polymer | Vitamin B12 Load (mg/g polymer) ([10]; HEMA-PC:LM 1:2, crosslinker 2 mole %): 4.66 mg/g polymer | Vitamin B12 Load (mg/g polymer) ([10]; HEMA-PC:LM 1:2, crosslinker 5 mole %): 1.96 mg/g polymer | Vitamin B12 Load (mg/g polymer) ([10]; HEMA-PC:LM 1:2, crosslinker 10 mole %): 0 mg/g polymer
Molecule: vitamin B12
